The supplement of paper PMC12076712
± gives the standard deviation of the averaged measurements.

How the values were obtained:
Assay in all cases: pIC50, kinobeads binding competition
Conditions in all cases: cell material: Jurkat lysate
[1] = biological target: CSK (UniProt P41240)
[2] = biological target: T1, NEK9 (UniProt Q8TD19)
T1 sequence (whole entry): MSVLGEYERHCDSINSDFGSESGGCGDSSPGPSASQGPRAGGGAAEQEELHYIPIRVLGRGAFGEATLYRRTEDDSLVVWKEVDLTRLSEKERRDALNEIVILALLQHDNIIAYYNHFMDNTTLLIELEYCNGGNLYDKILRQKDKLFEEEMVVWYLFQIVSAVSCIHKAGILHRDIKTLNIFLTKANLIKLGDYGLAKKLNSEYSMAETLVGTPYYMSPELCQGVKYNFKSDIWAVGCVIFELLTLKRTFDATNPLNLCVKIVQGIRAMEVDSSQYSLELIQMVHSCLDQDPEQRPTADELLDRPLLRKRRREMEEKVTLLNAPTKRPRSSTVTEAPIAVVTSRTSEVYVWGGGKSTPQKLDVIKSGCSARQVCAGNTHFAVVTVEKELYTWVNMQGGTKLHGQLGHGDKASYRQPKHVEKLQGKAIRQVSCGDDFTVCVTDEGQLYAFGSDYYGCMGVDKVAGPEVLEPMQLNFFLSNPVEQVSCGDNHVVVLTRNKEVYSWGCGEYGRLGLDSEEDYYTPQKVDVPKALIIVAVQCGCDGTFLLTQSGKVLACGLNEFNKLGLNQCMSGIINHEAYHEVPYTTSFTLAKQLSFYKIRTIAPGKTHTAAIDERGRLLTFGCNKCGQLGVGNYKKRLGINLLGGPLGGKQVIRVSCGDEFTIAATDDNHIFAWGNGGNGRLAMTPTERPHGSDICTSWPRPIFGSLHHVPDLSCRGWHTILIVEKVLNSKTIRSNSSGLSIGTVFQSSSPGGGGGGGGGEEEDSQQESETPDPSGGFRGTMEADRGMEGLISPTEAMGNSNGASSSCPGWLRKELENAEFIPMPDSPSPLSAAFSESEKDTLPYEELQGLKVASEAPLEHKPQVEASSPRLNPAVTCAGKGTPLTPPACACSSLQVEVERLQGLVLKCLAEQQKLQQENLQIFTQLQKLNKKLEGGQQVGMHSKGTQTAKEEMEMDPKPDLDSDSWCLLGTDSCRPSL

[3] = biological target: DDR1 (UniProt Q08345)
[4] = biological target: CAMKK2 (UniProt Q96RR4)
Sequence of CAMKK2 (Q96RR4 whole entry, looked up): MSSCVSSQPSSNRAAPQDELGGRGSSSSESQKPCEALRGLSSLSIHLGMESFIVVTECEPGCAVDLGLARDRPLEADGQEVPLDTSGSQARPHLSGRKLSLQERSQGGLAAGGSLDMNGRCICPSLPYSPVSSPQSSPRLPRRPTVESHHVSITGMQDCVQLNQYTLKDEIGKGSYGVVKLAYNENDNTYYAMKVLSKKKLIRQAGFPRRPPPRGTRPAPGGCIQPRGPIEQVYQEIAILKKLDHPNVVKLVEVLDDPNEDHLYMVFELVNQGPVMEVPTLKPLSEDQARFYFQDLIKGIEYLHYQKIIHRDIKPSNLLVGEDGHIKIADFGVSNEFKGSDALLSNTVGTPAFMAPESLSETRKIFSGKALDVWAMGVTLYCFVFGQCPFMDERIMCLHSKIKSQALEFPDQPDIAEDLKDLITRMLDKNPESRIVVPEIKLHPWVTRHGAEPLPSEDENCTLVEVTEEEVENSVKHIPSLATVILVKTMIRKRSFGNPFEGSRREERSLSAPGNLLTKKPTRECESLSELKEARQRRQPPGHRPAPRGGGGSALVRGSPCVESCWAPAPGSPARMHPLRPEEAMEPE

[5] = biological target: MAST4 (UniProt O15021)
Sequence of MAST4 (O15021 whole entry): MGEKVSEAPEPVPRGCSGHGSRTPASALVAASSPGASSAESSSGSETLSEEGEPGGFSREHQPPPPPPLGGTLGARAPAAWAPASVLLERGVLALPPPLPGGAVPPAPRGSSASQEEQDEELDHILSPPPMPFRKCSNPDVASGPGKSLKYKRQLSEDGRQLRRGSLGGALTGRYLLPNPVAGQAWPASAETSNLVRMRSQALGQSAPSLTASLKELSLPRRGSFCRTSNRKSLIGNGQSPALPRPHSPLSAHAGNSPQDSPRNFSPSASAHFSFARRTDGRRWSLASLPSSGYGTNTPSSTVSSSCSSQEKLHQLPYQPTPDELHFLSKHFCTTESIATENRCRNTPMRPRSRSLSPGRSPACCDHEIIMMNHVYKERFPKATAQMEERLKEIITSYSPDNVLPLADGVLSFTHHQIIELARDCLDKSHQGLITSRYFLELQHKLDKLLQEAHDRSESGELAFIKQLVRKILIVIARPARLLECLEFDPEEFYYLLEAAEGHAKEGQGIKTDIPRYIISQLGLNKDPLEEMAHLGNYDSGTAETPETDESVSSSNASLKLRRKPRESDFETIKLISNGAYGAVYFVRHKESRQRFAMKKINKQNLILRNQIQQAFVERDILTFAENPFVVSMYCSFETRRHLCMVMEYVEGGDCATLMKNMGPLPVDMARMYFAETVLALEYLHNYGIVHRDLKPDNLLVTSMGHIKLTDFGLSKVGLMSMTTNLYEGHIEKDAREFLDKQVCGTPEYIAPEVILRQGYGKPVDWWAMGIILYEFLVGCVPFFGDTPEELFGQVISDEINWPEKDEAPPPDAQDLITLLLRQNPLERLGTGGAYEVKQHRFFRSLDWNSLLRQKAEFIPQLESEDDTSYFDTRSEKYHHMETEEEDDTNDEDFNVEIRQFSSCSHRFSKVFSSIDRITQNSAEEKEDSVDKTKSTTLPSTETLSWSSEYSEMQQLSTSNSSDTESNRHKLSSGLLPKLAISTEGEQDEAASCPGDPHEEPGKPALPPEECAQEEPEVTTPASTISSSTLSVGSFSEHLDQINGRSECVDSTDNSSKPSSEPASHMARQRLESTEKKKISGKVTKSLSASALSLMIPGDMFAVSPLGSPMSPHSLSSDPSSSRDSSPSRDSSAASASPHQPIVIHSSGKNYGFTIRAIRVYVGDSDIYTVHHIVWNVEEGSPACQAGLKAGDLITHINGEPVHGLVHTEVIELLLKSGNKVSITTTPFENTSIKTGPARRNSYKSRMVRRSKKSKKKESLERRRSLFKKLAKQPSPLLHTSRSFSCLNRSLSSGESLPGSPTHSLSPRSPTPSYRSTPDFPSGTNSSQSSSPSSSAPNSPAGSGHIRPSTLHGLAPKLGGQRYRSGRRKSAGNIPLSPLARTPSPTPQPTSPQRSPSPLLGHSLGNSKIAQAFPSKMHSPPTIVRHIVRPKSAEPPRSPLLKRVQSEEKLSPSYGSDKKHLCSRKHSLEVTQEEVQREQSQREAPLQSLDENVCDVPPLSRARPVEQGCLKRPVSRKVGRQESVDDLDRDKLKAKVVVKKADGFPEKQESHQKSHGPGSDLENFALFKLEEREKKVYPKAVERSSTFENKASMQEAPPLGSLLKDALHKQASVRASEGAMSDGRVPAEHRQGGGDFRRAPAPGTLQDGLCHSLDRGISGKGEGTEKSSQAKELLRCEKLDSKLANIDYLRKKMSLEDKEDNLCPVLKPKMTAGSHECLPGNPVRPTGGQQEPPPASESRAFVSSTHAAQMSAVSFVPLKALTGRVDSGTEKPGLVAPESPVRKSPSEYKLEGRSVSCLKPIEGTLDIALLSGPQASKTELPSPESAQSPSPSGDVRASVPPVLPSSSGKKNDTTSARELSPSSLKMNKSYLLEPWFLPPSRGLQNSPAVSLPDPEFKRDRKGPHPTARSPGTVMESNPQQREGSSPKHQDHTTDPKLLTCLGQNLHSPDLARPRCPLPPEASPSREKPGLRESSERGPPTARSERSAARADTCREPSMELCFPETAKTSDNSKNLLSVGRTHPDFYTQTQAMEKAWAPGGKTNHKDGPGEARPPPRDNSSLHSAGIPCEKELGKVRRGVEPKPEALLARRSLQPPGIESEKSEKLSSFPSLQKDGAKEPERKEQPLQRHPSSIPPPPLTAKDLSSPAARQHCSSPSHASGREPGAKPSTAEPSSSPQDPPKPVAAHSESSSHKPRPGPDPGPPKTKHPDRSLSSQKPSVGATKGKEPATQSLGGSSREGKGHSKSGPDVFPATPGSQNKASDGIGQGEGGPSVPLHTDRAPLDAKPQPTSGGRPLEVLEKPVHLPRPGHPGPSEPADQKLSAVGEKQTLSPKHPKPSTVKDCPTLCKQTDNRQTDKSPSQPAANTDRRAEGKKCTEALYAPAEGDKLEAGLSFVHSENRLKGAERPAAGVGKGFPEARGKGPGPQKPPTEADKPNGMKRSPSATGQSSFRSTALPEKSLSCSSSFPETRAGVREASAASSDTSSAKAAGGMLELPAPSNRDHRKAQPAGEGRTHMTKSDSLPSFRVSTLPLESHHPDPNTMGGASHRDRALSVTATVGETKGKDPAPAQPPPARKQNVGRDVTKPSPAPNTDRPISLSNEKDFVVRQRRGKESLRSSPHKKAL

[6] = biological target: T2, ILK (UniProt Q13418)
T2 sequence (whole entry): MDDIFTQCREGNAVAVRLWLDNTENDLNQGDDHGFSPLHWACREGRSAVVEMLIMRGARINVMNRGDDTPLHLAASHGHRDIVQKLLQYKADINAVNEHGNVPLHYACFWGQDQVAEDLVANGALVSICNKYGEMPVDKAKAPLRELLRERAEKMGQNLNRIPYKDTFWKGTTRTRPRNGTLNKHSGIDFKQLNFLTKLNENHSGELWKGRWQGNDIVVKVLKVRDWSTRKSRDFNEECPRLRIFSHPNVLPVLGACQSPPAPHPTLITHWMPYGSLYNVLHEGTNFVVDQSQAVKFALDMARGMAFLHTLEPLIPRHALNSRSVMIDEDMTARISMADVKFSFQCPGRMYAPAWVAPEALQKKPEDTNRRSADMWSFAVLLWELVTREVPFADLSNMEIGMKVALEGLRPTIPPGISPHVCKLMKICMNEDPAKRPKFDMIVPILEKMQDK

[7] = biological target: UniProt P07947
Sequence of UniProt P07947 (P07947 whole entry, looked up): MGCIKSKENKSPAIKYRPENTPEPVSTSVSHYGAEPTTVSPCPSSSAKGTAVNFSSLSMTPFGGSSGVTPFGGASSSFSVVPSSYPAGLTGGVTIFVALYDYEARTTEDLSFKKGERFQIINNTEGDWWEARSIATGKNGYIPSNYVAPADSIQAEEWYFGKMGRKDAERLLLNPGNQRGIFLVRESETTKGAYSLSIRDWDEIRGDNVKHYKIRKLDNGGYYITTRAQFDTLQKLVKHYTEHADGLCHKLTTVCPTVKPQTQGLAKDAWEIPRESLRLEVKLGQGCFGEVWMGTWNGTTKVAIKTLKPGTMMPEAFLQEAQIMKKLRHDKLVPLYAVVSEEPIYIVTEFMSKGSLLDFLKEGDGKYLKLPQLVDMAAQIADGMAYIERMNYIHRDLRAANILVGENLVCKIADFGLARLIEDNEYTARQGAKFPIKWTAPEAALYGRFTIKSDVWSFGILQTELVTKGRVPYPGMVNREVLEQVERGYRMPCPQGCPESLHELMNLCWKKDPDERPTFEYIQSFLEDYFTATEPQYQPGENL

[8] = biological target: T3, TP53RK (UniProt Q96S44)
T3 sequence (whole entry): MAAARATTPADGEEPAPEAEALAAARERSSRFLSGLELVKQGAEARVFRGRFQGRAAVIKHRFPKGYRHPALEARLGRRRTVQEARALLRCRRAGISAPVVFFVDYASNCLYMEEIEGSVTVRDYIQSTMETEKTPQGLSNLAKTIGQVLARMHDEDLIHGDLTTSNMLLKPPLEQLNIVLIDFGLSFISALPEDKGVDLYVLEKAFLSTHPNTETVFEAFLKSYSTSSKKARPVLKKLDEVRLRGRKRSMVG

[9] = biological target: UniProt Q9BUB5
Sequence of UniProt Q9BUB5 (Q9BUB5 whole entry, looked up): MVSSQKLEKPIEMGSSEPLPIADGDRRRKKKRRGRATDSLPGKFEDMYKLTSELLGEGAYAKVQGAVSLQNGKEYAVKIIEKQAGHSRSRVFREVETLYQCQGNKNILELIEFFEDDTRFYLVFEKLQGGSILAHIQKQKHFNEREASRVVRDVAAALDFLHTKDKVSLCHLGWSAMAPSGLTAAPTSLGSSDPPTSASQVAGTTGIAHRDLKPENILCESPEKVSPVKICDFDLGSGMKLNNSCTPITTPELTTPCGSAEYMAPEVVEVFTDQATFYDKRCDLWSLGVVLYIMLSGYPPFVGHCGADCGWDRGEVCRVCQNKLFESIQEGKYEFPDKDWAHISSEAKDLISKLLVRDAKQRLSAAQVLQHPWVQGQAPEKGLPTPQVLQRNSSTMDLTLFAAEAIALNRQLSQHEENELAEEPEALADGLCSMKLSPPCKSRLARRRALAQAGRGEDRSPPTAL

[10] = biological target: T4, UniProt Q99759
T4 sequence (whole entry): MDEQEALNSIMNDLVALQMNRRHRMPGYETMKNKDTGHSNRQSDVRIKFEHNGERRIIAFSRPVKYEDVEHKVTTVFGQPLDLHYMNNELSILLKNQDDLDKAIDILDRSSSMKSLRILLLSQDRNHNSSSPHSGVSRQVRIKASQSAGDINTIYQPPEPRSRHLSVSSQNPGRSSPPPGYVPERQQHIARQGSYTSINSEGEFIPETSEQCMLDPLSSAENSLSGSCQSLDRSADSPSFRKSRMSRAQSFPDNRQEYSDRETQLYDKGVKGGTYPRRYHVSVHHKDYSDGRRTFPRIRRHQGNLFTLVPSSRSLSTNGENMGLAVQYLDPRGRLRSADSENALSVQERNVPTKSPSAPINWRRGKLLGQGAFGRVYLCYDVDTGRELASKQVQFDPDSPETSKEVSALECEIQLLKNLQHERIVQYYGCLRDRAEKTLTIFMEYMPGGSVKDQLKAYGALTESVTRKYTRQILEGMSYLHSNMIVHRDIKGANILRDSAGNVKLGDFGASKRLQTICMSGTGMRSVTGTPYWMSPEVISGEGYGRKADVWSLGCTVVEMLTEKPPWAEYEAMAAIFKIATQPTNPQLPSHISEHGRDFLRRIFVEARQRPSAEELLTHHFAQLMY

Sequence of CSK (P41240 whole entry, looked up): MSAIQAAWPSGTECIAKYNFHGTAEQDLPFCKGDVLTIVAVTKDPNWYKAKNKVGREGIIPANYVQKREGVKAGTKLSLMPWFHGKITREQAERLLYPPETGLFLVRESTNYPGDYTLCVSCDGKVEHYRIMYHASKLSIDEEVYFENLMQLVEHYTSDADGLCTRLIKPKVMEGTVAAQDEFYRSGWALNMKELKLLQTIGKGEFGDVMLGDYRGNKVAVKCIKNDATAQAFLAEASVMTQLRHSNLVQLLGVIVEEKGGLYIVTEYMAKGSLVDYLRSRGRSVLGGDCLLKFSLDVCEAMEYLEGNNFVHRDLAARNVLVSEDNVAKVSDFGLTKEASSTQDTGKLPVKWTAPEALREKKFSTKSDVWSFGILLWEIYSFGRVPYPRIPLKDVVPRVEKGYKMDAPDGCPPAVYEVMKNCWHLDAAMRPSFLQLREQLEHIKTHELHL

## CCc1cnn2c(NCc3ccc[n+]([O-])c3)cc(N3CCCC[C@H]3CCO)nc12 [dinaciclib]
[1]
  pIC50: < 4.52
[2]
  pIC50: < 4.52
[3]
  pIC50: < 4.52
[4]
  pIC50: 5.245 ± 0.035
[5]
  pIC50: < 4.52
[6]
  pIC50: < 4.52
[7]
  pIC50: < 4.52
[8]
  pIC50: < 4.52
[9]
  pIC50: < 4.52
[10]
  pIC50: < 4.52
